In patent publication US10258658B2, “Compositions and methods for improved muscle metabolism” (Naturex SA, priority 2015, dated 2019):
Marks after values point to notes of the source that are not given here.

How the values were obtained:
[1] = test system: S6K1 phosphorylation on threonine 389; test: S6K1 phosphorylation on threonine 389 in C2C12 myotubes (ELISA); type: cell-based, mice; conditions: LOW AMINO ACID (0.08 mM), Step 1; 100 ng/mL; 2 h; % of untreated control
Method: (§1) Growing cells were harvested and plated at a density of 170 000 cells per well in a 6 well plate. Cells were grown for 48 h in 5% CO2 at 37° C. After cells reached 80% confluence, the medium was replaced with differentiating medium (DMEM+2% FBS). After 5 days, myoblasts were fused into multinucleated myotubes. 1 h before starting the experiment, cells were incubated in Krebs medium to deprived cells of amino acids.
(§2) Cells were treated with five preparations of Rhaponticum plant extract at 3 concentrations in the presence of normal (0.8 mM) or low (0.08 mM) concentration of amino acids and with DMSO 0.002% for 2 h.
(§3) At the end of the experiment, cells were lysed in cell lysate buffer (100 μL per well) and centrifuged to isolate the soluble protein in supernatant. Proteins from this cellular assay were quantified using a colorimetric assay derived from LOWRY method. Therefore, 50 μg of total protein in 100 μL lysis buffer were transferred into microwell strips coated with pS6K1 or pAkt antibody and incubated 2 h at 37° C. […] Intensity of the yellow color was readable on a spectrophotometer at 450 nm and directly proportional to pS6K1 or Akt amount detected.
Results of phosphorylated T389 S6 kinase1 is expressed in absorbance per μg of protein (Abs/μg protein) after 2 hrs incubation and in % of untreated control condition (100%). […]

[2] = test system: Akt phosphorylation on threonine 308; test: Akt phosphorylation on threonine 308 in C2C12 myotubes (ELISA); type: cell-based, mice; conditions: 100 ng/mL, 2 h
Method: as §1, §2, §3
Results of phosphorylated Akt is expressed in absorbance per μg of protein (Abs/μg protein) after 2 hrs incubation and in % of untreated control condition (100%). […]

[3] = test system: C2C12 myotubes; test: Protein synthesis (tritiated leucine incorporation) in C2C12 myotubes; type: cell-based, mice; conditions: 100 ng/mL
Method: For the protein synthesis assay, growing cells were harvested and plated at a density of 30 000 cells per well in a 24 well plate. Cells were grown for 48 h in 5% CO2 at 37° C. After cells reached 80% confluence, the medium was replaced with differentiating medium (DMEM+2% FBS). After 5 days, myoblasts were fused into multinucleated myotubes. Protein synthesis was determined by measuring the incorporation of the tritiated amino acid leucine. Briefly, 1 h prior leucine challenge, cells were incubated in amino acid free-medium. Then cells were incubated for 2 h30 in the presence of: radiolabelled leucine 5 μCi/mL and IGF1 100 ng/mL or plant extract in the presence of normal (0.8 mM) or low (0.08 mM) concentration of amino acids and with DMSO 0.002%
Five different preparations of Rhaponticum extract at three concentrations were incubated for 2 h30 in the presence of differentiated C2C12 myotubes and tritiated leucine (5 μCi). At the end of the incubation cells were lysed, total soluble proteins were quantified and level of tritiated leucine incorporated into cells was counted. Mean±SEM. *p<0.05; **p<0.01; ***p<0.001 vs control value.
For this study, C2C12 cells were obtained as described in EXAMPLE 12. Protein synthesis assay was performed as described in EXAMPLE 13, except that radiolabelled leucine 5 μCi/mL and IGF1 100 ng/mL, F0 extract at 1, 5 and 10 μg/ml or Rhodiola extract at 10, 104 and 417 μg/ml in the presence of normal (0.8 mM) concentration of amino acids and with DMSO 0.005% were used.
For this study, C2C12 cells were obtained as described in EXAMPLE 12. Protein synthesis assay was performed as described in EXAMPLE 13, except that radiolabelled leucine 5 μCi/mL and IGF1 100 ng/mL, F0 extract at 1 and 10 μg/ml, or Rhodiola extract at 1 and 10 μg/ml or combination of F0 with Rhodiola at different concentrations in the presence of normal (0.8 mM) concentration of amino acids and with DMSO 0.005% was used.
The C2C12 skeletal muscle cells were obtained as in EXAMPLE 12. The protein synthesis assay was performed as in EXAMPLE 13 and 14 except that radiolabelled leucine 5 μCi/mL and IGF1 100 ng/mL, F0 extract at 11.4 and 22.9 μg/ml, or F0 dry extract at 6.5 and 13 μg/ml or F1 extract at 13.4 and 26.7 μg/ml or F5′ extract at 1 and 1.9 μg/ml in the presence of normal (0.8 mM) concentration of amino acids and with DMSO 0.005%. At the end of the experiments supernatants were discarded and cells were lysed in 0.1N sodium hydroxide for 30 min. The cell soluble fraction-associated radioactivity was then counted and protein quantification was determined using the coloric Lowry method.
Each condition is tested in n=6. IGF1 100 ng/ml is used as a positive control of the protein synthesis stimulation and signaling. Results of protein synthesis are expressed in cpm/μL/2.5 hrs and in % of untreated control condition (100%).

[4] = test system: myostatin gene expression; test: Myostatin gene expression in C2C12 myotubes (qPCR); type: cell-based, mice
Method: (§4) For the gene expression assay, growing cells were harvested and plated at a density of 30 000 cells per well in a 24 well plate. Cells were grown for 48 h in 5% CO2 at 37° C. After cells reached 80% confluence, the medium was replaced with differentiating medium (DMEM+2% FBS). After 5 days, myoblasts were fused into multinucleated myotubes.
(§5) Cells were treated with F0 extract at 1 and 10 μg/ml, or Rhodiola extract at 1 and 10 μg/ml or combination of F0 with Rhodiola at different concentrations, for 6 h. At the end of the experiment, C2C12 cells were lyzed in trizol solution and RNA was extracted and purified using the phenol/chloroform method. RNA amount after extraction was quantified by spectrophotometer (260 nm/280 nm/320 nm) and suspended at a final concentration of 1 μg/1 μL. […]
FIGS. 23a, 23b, 24a, and 24b: Effect of co-incubation of Rhaponticum F0 and Rhodiola extracts on myostatin gene expression in C2C12 myotubes. […] At the end of the incubation cells were lysed and RNA was extracted, converted into cDNA to perform a quantitative PCR. […]

[5] = test system: atrogin gene expression; test: Atrogin gene expression in C2C12 myotubes (qPCR); type: cell-based, mice; conditions: positive control in this experiment
Method: as §4, §5
Combination of Rhaponticum F0 and Rhodiola extracts at two different concentrations each were incubated for 6 h in the presence of differentiated C2C12 myotubes. At the end of the incubation cells were lysed and RNA was extracted, converted into cDNA to perform a quantitative PCR. […]

[6] = test system: C2C12 myotubes; conditions: low or normal concentration of amino acids; literature (Kazi, Broussard); cited from earlier work
[7] = test system: atrogin gene expression; conditions: 24 h incubation, 10 ng/mL; literature (Latres, Stitt); cited from earlier work

## Insulin like growth factor-1 [IGF-1]
[1]
  pS6K: 479%**
[2]
  Akt phosphorylation activated by a factor: 1.6
[3]; LOW AMINO ACID (0.08 mM), Step 1, 2 h30, % of untreated control
  protein synthesis: 145%**
[3]; step 1, low (0.08 mM) amino acids, DMSO 0.002%
  induction of protein synthesis vs untreated control: +45%
[3]; step 1, normal (0.8 mM) amino acids, DMSO 0.002%
  induction of protein synthesis vs untreated control: +21%
[3]; step 2a, normal (0.8 mM) amino acids, DMSO 0.005%
  induction of protein synthesis vs untreated control: +27%
[3]; step 3, normal (0.8 mM) amino acids, DMSO 0.005%
  induction of protein synthesis vs untreated control: +25%
[4]; internal data
  inhibitory effect on myostatin gene expression: 20-40%
[4]; positive control in this experiment
  change in myostatin gene expression vs control: −25%
[5]
  change in atrogin gene expression vs control: −59%
[6]
  increase in protein synthesis: 20-50%
[7]
  inhibition of atrogin gene expression: around 40%
